Results on 39 compounds are retold here after patent US9079866B2, “Flap modulators” (JANSSEN PHARMACEUTICA NV, priority 2013, dated 2015).

SMILES strings stand for the structures. pKi: −log10 of the molar value. Counter-ions that a name gives are not always drawn.

The target of the first assay is human FLAP (Homo sapiens (Human), UniProt P20292). The assay is described as follows: FLAP binding assay (HTRF format). Particulars: human FLAP wild type, HTRF format; average of two plates, duplicates. The method, then: The ability of the compounds of the present invention to treat a FLAP-mediated disease and/or disorder, or associated symptoms or complications thereof, was determined using the following procedures. Binding assay data represent the average value obtained from two different assay plates, with samples run in duplicate on each plate. Human whole blood assay data represent a single replicate on an assay plate using whole blood from at least one healthy donor.
human FLAP, sequence (P20292 whole entry): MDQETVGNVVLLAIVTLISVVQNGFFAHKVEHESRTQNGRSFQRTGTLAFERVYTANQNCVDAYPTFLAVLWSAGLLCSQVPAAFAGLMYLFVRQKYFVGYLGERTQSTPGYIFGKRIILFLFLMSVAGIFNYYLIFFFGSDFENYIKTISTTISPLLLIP
Data are expressed as a HTRF ratio.
What is called pKi is the negative decadic logarithm of the Ki, by convention in mol/L. In turn, `CN(C)S(=O)(=O)Nc1ccccc1-c1ccc(-c2cnc(N)nc2)c(F)c1` [Example 311, N′-[4′-(2-Aminopyrimidin-5-yl)-3′-fluorobiphenyl-2-yl]-N,N-dimethylsulfamide] had a pKi of 6.13.

Compound `C[C@@H](CO)NS(=O)(=O)c1ccccc1-c1ccc(-c2ccc(N)nc2)c(F)c1` [Example 347, (S)-4′-(6-Aminopyridin-3-yl)-3′-fluoro-N-(1-hydroxypropan-2-yl)-[1,1′-biphenyl]-2-sulfonamide] showed a negative logarithm of the Ki (pKi) of 7.11. For the compound `CN1C(C)(C)CC(NS(=O)(=O)c2ccccc2-c2ccc(-c3cnc(N)cn3)c(F)c2)CC1(C)C` [Example 30, 4′-(5-Aminopyrazin-2-yl)-3′-fluoro-N-(1,2,2,6,6-pentamethylpiperidin-4-yl)biphenyl-2-sulfonamide], the pKi was 7.02. The compound `C[C@H](CO)NS(=O)(=O)Cc1ccccc1-c1ccc(-c2cnc(N)cn2)c(F)c1` [Example 225, (R)-1-(4′-(5-Aminopyrazin-2-yl)-3′-fluoro-[1,1′-biphenyl]-2-yl)-N-(1-hydroxypropan-2-yl)-methanesulfonamide hydrochloride] gave a pKi of 6.07. The same measure, in the same setting: the value for `NC(=O)NC1CCN(S(=O)(=O)Cc2ccccc2-c2ccc(-c3cnc(N)cn3)c(F)c2)CC1` [Example 232, 1-[1-({[4′-(5-Aminopyrazin-2-yl)-3′-fluorobiphenyl-2-yl]methyl}sulfonyl)piperidin-4-yl]urea hydrochloride] was 6.45.

The assay is the same for the next values; noted with them: read-out: FLAP Binding wild type HTRF Ki.
With `Nc1ncc(-c2ccc(-c3ccccc3S(=O)(=O)c3ncncc3N)cc2F)cn1` [Example 337, 5-{2′-[(5-Aminopyrimidin-4-yl)sulfonyl]-3-fluorobiphenyl-4-yl}pyrimidin-2-amine hydrochloride], the pKi was 5.60. Same read-out and setting: the same measure for `CS(=O)(=O)c1ccccc1-c1ccc(-c2cnc(N)nc2)c(F)c1` [Example 304, 5-[3-Fluoro-2′-(methylsulfonyl)biphenyl-4-yl]pyrimidin-2-amine trifluoroacetic acid salt]: under 5.00.

Still in this assay, the particulars now being: wild type FLAP, HTRF format.
For `C[C@@H](NC(=O)c1ccccc1-c1ccc(-c2cnc(N)nc2)c(F)c1)C(F)(F)F` [Example 518, 4′-(2-Aminopyrimidin-5-yl)-3′-fluoro-N-[(1R)-2,2,2-trifluoro-1-methylethyl]biphenyl-2-carboxamide], the pKi was under 5.00. Still for that read-out and setting: the value for `CC(C)(C)NS(=O)(=O)c1ccccc1-c1ccc(-c2cnc(N)c(C(=O)O)n2)c(F)c1` [Example 598, 3-Amino-6-[2′-(tert-butylsulfamoyl)-3-fluorobiphenyl-4-yl]pyrazine-2-carboxylic acid] was under 5.00. The same measure, in the same setting: the value for `CNC1CCN(C(=O)c2ccccc2-c2ccc(-c3cnc(N)nc3)c(F)c2)CC1` [Example 792, [2-[4-(2-Aminopyrimidin-5-yl)-3-fluoro-phenyl]phenyl]-[4-(methylamino)-1-piperidyl]methanone] was under 5.00; that for `CS(=O)(=O)Cc1ccccc1-c1ccc(-c2cnc(N)cn2)c(F)c1` [Example 750, 5-{3-Fluoro-2′-[(methylsulfonyl)methyl]biphenyl-4-yl}pyrazin-2-amine] was 5.94. The same measure, in the same setting: the value for `C[C@@H](CO)NC(=O)c1ccccc1-c1ccc(-c2cnc(N)cn2)c(F)c1` [Example 513, 4′-(5-Aminopyrazin-2-yl)-3′-fluoro-N-[(1S)-2-hydroxy-1-methylethyl]biphenyl-2-carboxamide] was under 5.00. Turning to `Nc1ccnc(Oc2ccccc2-c2ccc(-c3cnc(N)nc3)nc2)n1` [Example 568, 5-(5-{2-[(4-Aminopyrimidin-2-yl)oxy]phenyl}pyridin-2-yl)pyrimidin-2-amine], the pKi was 5.60. On the same count and under the same terms, the same measure for `Nc1ncc(-c2ccc(-c3ccccc3Oc3ccnc(N)n3)cn2)cn1` [Example 567, 4-{2-[6-(2-Aminopyrimidin-5-yl)pyridin-3-yl]phenoxy}pyrimidin-2-amine]: 5.95.

Compound `Nc1cnc(-c2ccc(-c3ccccc3S(=O)(=O)c3cc(N)ncn3)cc2F)cn1` [Example 726, 6-{[4′-(5-Aminopyrazin-2-yl)-3′-fluorobiphenyl-2-yl]sulfonyl}pyrimidin-4-amine] showed a pKi of 6.04.

Compound `Nc1ncc(-c2ccc(-c3ccccc3C(=O)N3CCC[C@H](O)C3)cc2F)cn1` [Example 767, (3S)-1-{[4′-(2-Aminopyrimidin-5-yl)-3′-fluorobiphenyl-2-yl]carbonyl}piperidin-3-ol] gave a pKi of under 5.00. The same measure, in the same setting: the value for `NC(=O)Nc1ccccc1-c1ccc(-c2cnc(N)cn2)c(F)c1` [Example 460, 1-[4′-(5-Aminopyrazin-2-yl)-3′-fluorobiphenyl-2-yl]u rea] was under 5.00. On the same count and under the same terms, the same measure for `COc1ccccc1-c1ccc(-c2cnc(N)nc2)nc1` [Example 678, 5-[5-(2-Methoxyphenyl)pyridin-2-yl]pyrimidin-2-amine]: under 5.00. On the same count and under the same terms, the same measure for `CNC(=O)c1ccccc1-c1ccc(-c2cnc(N)cn2)c(F)c1` [Example 510, 4′-(5-Aminopyrazin-2-yl)-3′-fluoro-N-methylbiphenyl-2-carboxamide]: 5.71. As to `Nc1cnc(-c2ccc(-c3ccccc3S(N)(=O)=O)cc2O)cn1` [Example 592, 4′-(5-Aminopyrazin-2-yl)-3′-hydroxybiphenyl-2-sulfonamide], the pKi is under 5.00. In turn, `CC(CO)Oc1ncccc1-c1ccc(-c2cnc(N)nc2)c(F)c1` (stereo in doubt) [Example 656, (2R)-2-({3-[4-(2-Aminopyrimidin-5-yl)-3-fluorophenyl]pyridin-2-yl}oxy)propan-1-ol] had a pKi of 5.86. Still for that read-out and setting: the value for `CC(C)(CN)S(=O)(=O)c1ccccc1-c1ccc(-c2cnc(N)nc2)c(F)c1` [Example 734, 5-{2′-[(2-Amino-1,1-dimethylethyl)sulfonyl]-3-fluorobiphenyl-4-yl}pyrimidin-2-amine] was under 5.00; that for `Nc1cnc(-c2ccc(-c3ccccc3F)cc2F)cn1` [Example 468, 5-(2′,3-Difluorobiphenyl-4-yl)pyrazin-2-amine] was 6.21. Compound `CC(C)(C#N)S(=O)(=O)c1ccccc1-c1ccc(-c2cnc(N)nc2)c(F)c1` [Example 732, 2-{[4′-(2-Aminopyrimidin-5-yl)-3′-fluorobiphenyl-2-yl]sulfonyl}-2-methylpropanenitrile] showed a pKi of 6.25. `N#Cc1ccccc1-c1ccc(-c2cnc(N)cn2)c(F)c1` [Example 701, 4′-(5-Aminopyrazin-2-yl)-3′-fluorobiphenyl-2-carbonitrile] gave a pKi of about 5.85. On the same count and under the same terms, the same measure for `Nc1ncc(-c2ccc(-c3ccccc3OC3CCNCC3)cc2F)cn1` [Example 631, 5-[3-Fluoro-2′-(piperidin-4-yloxy)biphenyl-4-yl]pyrimidin-2-amine]: under 5.00; for `Nc1ncc(-c2ccc(-c3ccccc3OCCO)cc2F)cn1` [Example 629, 2-{[4′-(2-Aminopyrimidin-5-yl)-3′-fluorobiphenyl-2-yl]oxy}ethanol]: 6.08. The same measure, in the same setting: the same measure for `CNS(=O)(=O)c1ccccc1-c1ccc(-c2ccc(N)nc2)c(F)c1` [Example 661, 4′-(6-Aminopyridin-3-yl)-3′-fluoro-N-methyl-[1,1′-biphenyl]-2-sulfonamide]: about 5.60; for `Nc1ncc(-c2ccc(-c3ccccc3C(=O)N3CCC[C@@H](O)C3)cc2F)cn1` [Example 764, (3R)-1-{[4′-(2-Aminopyrimidin-5-yl)-3′-fluorobiphenyl-2-yl]carbonyl}piperidin-3-ol]: under 5.00; for `Nc1cnc(-c2ccc(-c3ccccc3C(=O)O)cc2F)cn1` [Example 485, 4′-(5-Aminopyrazin-2-yl)-3′-fluorobiphenyl-2-carboxylic acid]: under 5.00. Consider `Nc1ncc(-c2ccc(-c3ccccc3C(=O)N3CCNC(=O)C3)cc2F)cn1` [Example 520, 4-{[4′-(2-Aminopyrimidin-5-yl)-3′-fluorobiphenyl-2-yl]carbonyl}piperazin-2-one], for which the pKi was under 5.00. On the same count and under the same terms, the same measure for `Nc1cnc(-c2ccc(-c3ccccc3N3CCCC3=O)cc2F)cn1` [Example 860, 1-[4′-(5-Aminopyrazin-2-yl)-3′-fluorobiphenyl-2-yl]pyrrolidin-2-one]: about 5.83; for `C[C@@H]1COCCN1C(=O)c1ccccc1-c1ccc(-c2cnc(N)nc2)c(F)c1` [Example 779, 5-(3-Fluoro-2′-{[(3R)-3-methylmorpholin-4-yl]carbonyl}biphenyl-4-yl)pyrimidin-2-amine]: about 5.60; for `Nc1ncc(-c2ccc(-c3ccccc3S(=O)(=O)c3ccnc(N)n3)cc2F)cn1` [Example 724, 4-{[4′-(2-Aminopyrimidin-5-yl)-3′-fluorobiphenyl-2-yl]sulfonyl}pyrimidin-2-amine]: under 5.00. `Nc1cnc(-c2ccc(-c3c(F)cccc3F)cc2F)cn1` [Example 478, 5-(2′,3,6′-Trifluorobiphenyl-4-yl)pyrazin-2-amine] had a pKi of 6.60. On the same count and under the same terms, the same measure for `O=C(c1ncccc1-c1ccc(-c2cnc3[nH]ccc3c2)c(F)c1)N1CCOCC1` [Example 781, 5-{2-Fluoro-4-[2-(morpholin-4-ylcarbonyl)pyridin-3-yl]phenyl}-1H-pyrrolo[2,3-b]pyridine]: 6.14; for `CC(C)(C(N)=O)S(=O)(=O)c1ccccc1-c1ccc(-c2cnc(N)nc2)c(F)c1` [Example 733, 2-{[4′-(2-Aminopyrimidin-5-yl)-3′-fluorobiphenyl-2-yl]sulfonyl}-2-methylpropanamide]: under 5.00. The same measure, in the same setting: the value for `Nc1cnc(-c2ccc(-c3ccccc3C(=O)N3CCC(N)CC3)cc2F)cn1` [Example 515, 5-{2′-[(4-Aminopiperidin-1-yl)carbonyl]-3-fluorobiphenyl-4-yl}pyrazin-2-amine] was under 5.00; that for `Nc1cnc(-c2ccc(-c3ccccc3C(=O)NC3CCCCC3)cc2F)cn1` [Example 508, 4′-(5-Aminopyrazin-2-yl)-N-cyclohexyl-3′-fluorobiphenyl-2-carboxamide] was 6.10.
